This is an account of results in patent US11173151B2, “Substituted triazole derivatives and uses thereof” (BAYER AKTIENGESELLSCHAFT, priority 2017, dated 2021).

SMILES strings stand for the structures. Read-outs that look alike come from different tables or passages of the source.

Experiment [1] has as its target T1, human V2 receptor (Homo sapiens, UniProt P30518).
T1 construct: expressed in transfected cells; host or cells: CHO K1 (ATCC) expressing firefly luciferase under a CRE-responsive promoter
Nature of the experiment: Cellular in vitro assay for determining vasopressin receptor activity, V2 receptor cell line (CHO, CRE-luciferase). The experiment is classed as cell-based. The following applies: CHO cell line transfected with human V2 receptor, [Arg8]-vasopressin at EC50 concentration, read-out: IC50 hV2.

Experiment [2] deals with T2, human V1a receptor (Homo sapiens, UniProt P37288).
T2 construct: expressed in transfected cells; host or cells: CHO K1 (ATCC), also stably transfected with a modified aequorin
T2 sequence (P37288 whole entry): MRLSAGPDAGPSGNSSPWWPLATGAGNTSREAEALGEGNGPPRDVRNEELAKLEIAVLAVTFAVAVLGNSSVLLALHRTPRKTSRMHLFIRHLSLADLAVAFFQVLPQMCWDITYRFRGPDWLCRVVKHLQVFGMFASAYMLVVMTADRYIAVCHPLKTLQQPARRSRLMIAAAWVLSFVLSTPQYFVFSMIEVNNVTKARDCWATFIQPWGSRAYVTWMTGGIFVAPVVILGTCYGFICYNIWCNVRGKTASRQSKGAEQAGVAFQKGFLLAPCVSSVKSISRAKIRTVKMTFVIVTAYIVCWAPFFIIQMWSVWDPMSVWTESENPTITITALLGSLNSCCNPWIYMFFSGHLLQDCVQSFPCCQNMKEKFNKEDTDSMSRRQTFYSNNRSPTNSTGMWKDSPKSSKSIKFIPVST
Nature of the experiment: Cellular in vitro assay for determining vasopressin receptor activity, V1a receptor cell line (CHO, aequorin luminescence). The experiment is classed as cell-based. The conditions noted are these: for IC50: CHO cell line transfected with human V1a receptor, [Arg]-vasopressin at EC50 concentration, read-out: IC50 hV1a; for ratio IC50 hV2/hV1a: selectivity ratio IC50 hV2 / IC50 hV1a. Summed up:
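IC50 from inhibition of [Arg]-vasopressin (EC50 concentration)-evoked aequorin luminescence in CHO K1 cells, with 10-min compound pretreatment.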

T1 sequence (P30518 whole entry): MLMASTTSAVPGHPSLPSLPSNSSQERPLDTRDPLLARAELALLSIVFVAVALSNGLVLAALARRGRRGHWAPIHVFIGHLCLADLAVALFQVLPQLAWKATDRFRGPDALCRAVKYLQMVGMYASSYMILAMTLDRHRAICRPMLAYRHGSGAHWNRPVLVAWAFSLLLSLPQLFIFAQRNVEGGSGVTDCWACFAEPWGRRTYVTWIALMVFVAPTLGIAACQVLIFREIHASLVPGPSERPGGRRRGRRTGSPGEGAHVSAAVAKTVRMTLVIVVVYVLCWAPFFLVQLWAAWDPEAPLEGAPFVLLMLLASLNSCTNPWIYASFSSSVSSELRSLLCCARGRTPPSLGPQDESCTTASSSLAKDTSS

A word on the IC50: it is the concentration needed to halve the response being measured. For the compound `NC(=O)[C@@H]1CC(F)(F)CN1C(=O)c1cccc(Cl)c1-n1cnc(Cn2nc(-c3ccc(Cl)cc3)n(C[C@@H](O)C(F)(F)F)c2=O)n1` [Example 396, 1-{3-Chloro-2-[3-({3-(4-chlorophenyl)-5-oxo-4-[(2R)-3,3,3-trifluoro-2-hydroxypropyl]-4,5-dihydro-1H-1,2,4-triazol-1-yl}methyl)-1H-1,2,4-triazol-1-yl]benzoyl}-4,4-difluoro-L-prolinamide], the IC50 in experiment [1] (3 hours) amounted to 32000 nM; in experiment [2], 301 nM. The “ratio IC50 hV2/hV1a” value in experiment [2] came to 106.3.

Turning to `O=C(c1cccc(Cl)c1-n1cnc(Cn2nc(-c3ccc(Cl)cc3)n(C[C@@H](O)C(F)(F)F)c2=O)n1)N1CCC(F)(F)C1` [Example 398, 2-[(1-{2-Chloro-6-[(3,3-difluoropyrrolidin-1-yl)carbonyl]phenyl}-1H-1,2,4-triazol-3-yl)methyl]-5-(4-chlorophenyl)-4-[(2R)-3,3,3-trifluoro-2-hydroxypropyl]-2,4-dihydro-3H-1,2,4-triazol-3-one], in experiment [1], the IC50 was 22000 nM. In experiment [2], the half-inhibitory concentration (IC50) was 440 nM and the “ratio IC50 hV2/hV1a” value is listed as 50.0.

Turning to `O=C(NC1CC(F)(F)C1)c1cccc(Cl)c1-n1cnc(Cn2nc(-c3ccc(Cl)cc3)n(C[C@@H](O)C(F)(F)F)c2=O)n1` [Example 399, 3-Chloro-2-[3-({3-(4-chlorophenyl)-5-oxo-4-[(2R)-3,3,3-trifluoro-2-hydroxypropyl]-4,5-dihydro-1H-1,2,4-triazol-1-yl}methyl)-1H-1,2,4-triazol-1-yl]-N-(3,3-difluorocyclobutyl)benzamide], the IC50 in experiment [1] was found to be 3150 nM. For the same compound, in experiment [2], the IC50 was 190 nM and the “ratio IC50 hV2/hV1a” value stood at 16.6.

Regarding `O=C(c1cccc(Cl)c1-n1cnc(Cn2nc(-c3ccc(Cl)cc3)n(C[C@@H](O)C(F)(F)F)c2=O)n1)N1CCCCC1` [Example 401, 5-(4-Chlorophenyl)-2-({1-[2-chloro-6-(piperidin-1-ylcarbonyl)phenyl]-1H-1,2,4-triazol-3-yl}methyl)-4-[(2R)-3,3,3-trifluoro-2-hydroxypropyl]-2,4-dihydro-3H-1,2,4-triazol-3-one], the IC50 amounted to 9950 nM in experiment [1] and 240 nM in experiment [2]. In experiment [2], the “ratio IC50 hV2/hV1a” value worked out at 41.5.

On to `O=C(c1cccc(Cl)c1-n1cnc(Cn2nc(-c3ccc(Cl)cc3)n(C[C@@H](O)C(F)(F)F)c2=O)n1)N1CCOCC1` [Example 402, 2-({1-[2-Chloro-6-(morpholin-4-ylcarbonyl)phenyl]-1H-1,2,4-triazol-3-yl}methyl)-5-(4-chlorophenyl)-4-[(2R)-3,3,3-trifluoro-2-hydroxypropyl]-2,4-dihydro-3H-1,2,4-triazol-3-one], for which the IC50 in experiment [1] came out at 32000 nM; in experiment [2], 435 nM. Also, the “ratio IC50 hV2/hV1a” value in experiment [2] turned out to be 73.6.

In the case of `O=C(NC1(C(F)(F)F)CC1)c1cccc(Cl)c1-n1cnc(Cn2nc(-c3ccc(Cl)cc3)n(C[C@@H](O)C(F)(F)F)c2=O)n1` [Example 403, 3-Chloro-2-[3-({3-(4-chlorophenyl)-5-oxo-4-[(2R)-3,3,3-trifluoro-2-hydroxypropyl]-4,5-dihydro-1H-1,2,4-triazol-1-yl}methyl)-1H-1,2,4-triazol-1-yl]-N-[1-(trifluoromethyl)cyclopropyl]benzamide], the IC50 was 5800 nM in experiment [1] and 74.5 nM in experiment [2]. For the same compound, the “ratio IC50 hV2/hV1a” value in experiment [2] is given as 77.9.

Turning to `O=C(c1cccc(Cl)c1-n1cnc(Cn2nc(-c3ccc(Cl)cc3)n(C[C@@H](O)C(F)(F)F)c2=O)n1)N1CCC[C@@H]1C(F)(F)F` [Example 404, 5-(4-Chlorophenyl)-2-{[1-(2-chloro-6-{[(2R)-2-(trifluoromethyl)pyrrolidin-1-yl]carbonyl}phenyl)-1H-1,2,4-triazol-3-yl]methyl}-4-[(2R)-3,3,3-trifluoro-2-hydroxypropyl]-2,4-dihydro-3H-1,2,4-triazol-3-one], in experiment [1], the IC50 was 11500 nM. Moreover, in experiment [2], the IC50 worked out at 315 nM and the “ratio IC50 hV2/hV1a” value turned out to be 36.5.

Regarding `CC1(NC(=O)c2cccc(Cl)c2-n2cnc(Cn3nc(-c4ccc(Cl)cc4)n(C[C@@H](O)C(F)(F)F)c3=O)n2)CC1` [Example 405, 3-Chloro-2-[3-({3-(4-chlorophenyl)-5-oxo-4-[(2R)-3,3,3-trifluoro-2-hydroxypropyl]-4,5-dihydro-1H-1,2,4-triazol-1-yl}methyl)-1H-1,2,4-triazol-1-yl]-N-(1-methylcyclopropyl)benzamide], the IC50 in experiment [1] came out at 10100 nM. Moreover, in experiment [2], the IC50 worked out at 16.5 nM and the “ratio IC50 hV2/hV1a” value amounted to 615.2.

In the case of `CC1(C)COCCN1C(=O)c1cccc(Cl)c1-n1cnc(Cn2nc(-c3ccc(Cl)cc3)n(C[C@@H](O)C(F)(F)F)c2=O)n1` [Example 407, 2-[(1-{2-Chloro-6-[(3,3-dimethylmorpholin-4-yl)carbonyl]phenyl}-1H-1,2,4-triazol-3-yl)methyl]-5-(4-chlorophenyl)-4-[(2R)-3,3,3-trifluoro-2-hydroxypropyl]-2,4-dihydro-3H-1,2,4-triazol-3-one], the IC50 in experiment [1] was determined as 32000 nM. Further, in experiment [2], the IC50 came out at 425 nM and the “ratio IC50 hV2/hV1a” value was 75.3.

Take `NC(=O)[C@H]1CC(F)(F)CN1C(=O)c1cccc(Cl)c1-n1cnc(Cn2nc(-c3ccc(Cl)cc3)n(C[C@@H](O)C(F)(F)F)c2=O)n1` [Example 409, 1-{3-Chloro-2-[3-({3-(4-chlorophenyl)-5-oxo-4-[(2R)-3,3,3-trifluoro-2-hydroxypropyl]-4,5-dihydro-1H-1,2,4-triazol-1-yl}methyl)-1H-1,2,4-triazol-1-yl]benzoyl}-4,4-difluoro-D-prolinamide]: the values for the IC50 in experiment [1] and in experiment [2] were 32000 nM and 180 nM, respectively. For the same compound, the “ratio IC50 hV2/hV1a” value in experiment [2] was found to be 177.8.

Consider `O=C(NCCC(F)(F)F)c1cccc(Cl)c1-n1cnc(Cn2nc(-c3ccc(Cl)cc3)n(C[C@@H](O)C(F)(F)F)c2=O)n1` [Example 410, 3-Chloro-2-[3-({3-(4-chlorophenyl)-5-oxo-4-[(2R)-3,3,3-trifluoro-2-hydroxypropyl]-4,5-dihydro-1H-1,2,4-triazol-1-yl}methyl)-1H-1,2,4-triazol-1-yl]-N-(3,3,3-trifluoropropyl)benzamide], for which, in experiment [1], the IC50 was 3300 nM. Besides, in experiment [2], the IC50 turned out to be 325 nM and the “ratio IC50 hV2/hV1a” value is 10.2.

`O=C(c1cccc(Cl)c1-n1cnc(Cn2nc(-c3ccc(Cl)cc3)n(C[C@H](O)C(F)(F)F)c2=O)n1)N1CC2(COC2)C1` [Example 411, 2-({1-[2-Chloro-6-(2-oxa-6-azaspiro[3.3]hept-6-ylcarbonyl)phenyl]-1H-1,2,4-triazol-3-yl}methyl)-5-(4-chlorophenyl)-4-[(2S)-3,3,3-trifluoro-2-hydroxypropyl]-2,4-dihydro-3H-1,2,4-triazol-3-one]: in experiment [1], the IC50 was 4850 nM. In addition, in experiment [2], the IC50 was 365 nM and the “ratio IC50 hV2/hV1a” value stood at 13.3.

As to `O=C(NCC(F)(F)F)c1cccc(C(F)(F)F)c1-n1cnc(Cn2nc(-c3ccc(Cl)cc3)n(C[C@H](O)C(F)(F)F)c2=O)n1` [Example 412, 2-[3-({3-(4-Chlorophenyl)-5-oxo-4-[(2S)-3,3,3-trifluoro-2-hydroxypropyl]-4,5-dihydro-1H-1,2,4-triazol-1-yl}methyl)-1H-1,2,4-triazol-1-yl]-N-(2,2,2-trifluoroethyl)-3-(trifluoromethyl)benzamide], the half-maximal inhibitory concentration (IC50) in experiment [1] is 2000 nM. Besides, in experiment [2], the IC50 was determined as 140 nM and the “ratio IC50 hV2/hV1a” value stood at 14.3.

As to `CC1(NC(=O)c2cccc(C(F)(F)F)c2-n2cnc(Cn3nc(-c4ccc(Cl)cc4)n(C[C@H](O)C(F)(F)F)c3=O)n2)CC1` [Example 414, 2-[3-({3-(4-Chlorophenyl)-5-oxo-4-[(2S)-3,3,3-trifluoro-2-hydroxypropyl]-4,5-dihydro-1H-1,2,4-triazol-1-yl}methyl)-1H-1,2,4-triazol-1-yl]-N-(1-methylcyclopropyl)-3-(trifluoromethyl)benzamide], the IC50 in experiment [1] is 3600 nM; in experiment [2], 44.5 nM. In experiment [2], the “ratio IC50 hV2/hV1a” value was 80.9.

`O=C(NC1CC1)c1cccc(C(F)(F)F)c1-n1cnc(Cn2nc(-c3ccc(Cl)cc3)n(C[C@H](O)C(F)(F)F)c2=O)n1` [Example 415, 2-[3-({3-(4-Chlorophenyl)-5-oxo-4-[(2S)-3,3,3-trifluoro-2-hydroxypropyl]-4,5-dihydro-1H-1,2,4-triazol-1-yl}methyl)-1H-1,2,4-triazol-1-yl]-N-cyclopropyl-3-(trifluoromethyl)benzamide]: the 50% inhibitory concentration (IC50) in experiment [1] is 1500 nM. In addition, in experiment [2], the IC50 came to 53.5 nM and the “ratio IC50 hV2/hV1a” value is 28.0.

With `COC[C@H]1CCCN1C(=O)c1cccc(C(F)(F)F)c1-n1cnc(Cn2nc(-c3ccc(Cl)cc3)n(C[C@H](O)C(F)(F)F)c2=O)n1` [Example 416, 5-(4-Chlorophenyl)-2-({1-[2-{[(2R)-2-(methoxymethyl)pyrrolidin-1-yl]carbonyl}-6-(trifluoromethyl)phenyl]-1H-1,2,4-triazol-3-yl}methyl)-4-[(2S)-3,3,3-trifluoro-2-hydroxypropyl]-2,4-dihydro-3H-1,2,4-triazol-3-one], the IC50 in experiment [1] amounted to 5850 nM; in experiment [2], 51.5 nM. For the same compound, the “ratio IC50 hV2/hV1a” value in experiment [2] came to 113.6.

Take `O=C(NC1CC(F)(F)C1)c1cccc(C(F)(F)F)c1-n1cnc(Cn2nc(-c3ccc(Cl)cc3)n(C[C@H](O)C(F)(F)F)c2=O)n1` [Example 417, 2-[3-({3-(4-Chlorophenyl)-5-oxo-4-[(2S)-3,3,3-trifluoro-2-hydroxypropyl]-4,5-dihydro-1H-1,2,4-triazol-1-yl}methyl)-1H-1,2,4-triazol-1-yl]-N-(3,3-difluorocyclobutyl)-3-(trifluoromethyl)benzamide]: in experiment [1], the IC50 came out at 315 nM. Further, in experiment [2], the half-inhibitory concentration (IC50) came to 37.5 nM and the “ratio IC50 hV2/hV1a” value is on record as 8.4.
